Experimental data taken from a compilation of properties of binary mixtures (doi:10.1016/j.molliq.2016.05.033).

Assay: xn = mol fraction of the nth substance listed
Conditions: 101 kPa

CNc1ccccc1 + CCCC[n+]1ccn(C)c1.F[B-](F)(F)F
speed of sound [m/s]
Conditions | x1 = 0.0974 | x1 = 0.2093 | x1 = 0.2979 | x1 = 0.3968 | x1 = 0.5009 | x1 = 0.592 | x1 = 0.697 | x1 = 0.7972 | x1 = 0.8999 | x1 = 1
293.15 K | 1578.7 | – | – | 1584.9 | – | 1594.9 | 1602.1 | 1601.6 | 1594.2 | 1582.7
303.15 K | 1554.2 | – | – | 1560.6 | 1562 | 1566.3 | 1571.4 | 1570 | 1559.5 | –
313.15 K | – | 1531.6 | 1532.2 | 1534.8 | – | 1537.9 | 1540.1 | 1537.7 | 1524.9 | 1511.6
323.15 K | 1507.2 | 1507.9 | 1508.4 | 1509.7 | 1510.5 | – | – | 1504.7 | – | 1476.4

CCCC[n+]1ccn(C)c1.F[B-](F)(F)F + CNc1ccccc1
x2 = 0
Conditions | speed of sound [m/s]
293.15 K | 1577.5
303.15 K | 1553.1
313.15 K | 1529.6
323.15 K | 1506.8
